Data set [1] has as its system Plasmodium falciparum. Briefly: Antimalarial activity against Plasmodium falciparum 3D7 after 72 hrs by SYBR Green fluorescence assay. Type of data set: functional, organism-based. The note with it: 3D7, 72 h.
The test system of data set [2] is Plasmodium falciparum. As to the kind of experiment: Antimalarial activity against Plasmodium falciparum K1 after 72 hrs by SYBR Green fluorescence assay. Format: functional, organism-based. The conditions noted are these: K1, 72 h.
Data set [3] in a line: Cytotoxicity against african green monkey Vero cells after 2 days by resazurin assay. Type of data set: cell-based. The note with it: chlorocebus sabaeus. (In general: Alamar Blue is a resazurin reagent that responds to reducing activity.)
Data set [4] in a line: Volume of distribution in Sprague-Dawley rat at 5 mg/kg, iv. Type of data set: ADME, organism-based. Also noted: dose 5 mg/kg, route intravenous. The note with it: in vivo.
A short description of data set [5]: Systemic clearance in Sprague-Dawley rat at 5 mg/kg, iv. Format: ADME, organism-based. Also noted: dose 5 mg/kg, route intravenous. The note with it: in vivo.
Data set [6] is described as follows: Terminal elimination half-life in Sprague-Dawley rat at 5 mg/kg, iv. Type of data set: ADME, organism-based. Further details: dose 5 mg/kg, route intravenous. The note with it: in vivo, read-out: beta t1/2 (converted).
In data set [7] the test system is Heme. As to the kind of experiment: Inhibition of heme polymerization in Plasmodium yoelii nigeriensis infected erythrocytes (unknown origin) extract at 100 uM after 4 hrs by spectrophotometry.

As usually defined, the IC50 is the concentration that gives 50% inhibition. As a reminder, the CC50 is the concentration at which the toxic effect on the cells reaches its halfway point. `O=C(/C=C/c1cccc(NC(=O)Nc2ccccc2)c1)C[C@@H]1OC[C@@H](O)[C@H](O)[C@H]1O`: the results for the concentration for half-maximal inhibition (IC50) in data set [1] and in data set [2] were 3.44 µM and 5.43 µM, respectively. This molecule also registered a CC50 at 48 h in data set [3] of 309 µM.
With `CC(=O)OC[C@H]1O[C@@H](CC(=O)/C=C/c2cccc(NC(=S)Nc3ccccc3)c2)[C@H](OC(C)=O)[C@@H](OC(C)=O)[C@@H]1OC(C)=O`, the concentration for half-maximal inhibition (IC50) in data set [1] turned out to be 1.91 µM; in data set [2], 4.48 µM. The molecule further had a half-maximal cytotoxic concentration (CC50) at 48 h in data set [3] of 337 µM.
`O=C(/C=C/c1ccc(NC(=O)Nc2ccc3ccccc3c2)cc1)C[C@@H]1O[C@H](CO)[C@@H](O)[C@H](O)[C@H]1O`: the IC50 in data set [1] came to 5.91 µM; in data set [2] it was 5.28 µM. For the same molecule, the midpoint of cytotoxicity in data set [3], the CC50 at 48 h, lay at 1020 µM.
Turning to `CC(=O)O[C@@H]1[C@@H](OC(C)=O)[C@H](OC(C)=O)CO[C@H]1CC(=O)/C=C/c1cccc(NS(=O)(=O)c2ccc(C)cc2)c1`, the results for the IC50 in data set [1] and in data set [2] were 1.39 µM and 3 µM, respectively. In data set [3], this molecule showed a 50% cytotoxic concentration (CC50) at 48 h of 268 µM.
For `O=C(/C=C/c1ccc(NC(=S)Nc2ccccc2)cc1)C[C@@H]1O[C@H](CO)[C@@H](O)[C@H](O)[C@H]1O` the same measures were 11.8 µM, 13.8 µM and 274 µM.
As to `CC(=O)OC[C@H]1O[C@@H](CC(=O)/C=C/c2cccc(NC(=O)Nc3ccccc3)c2)[C@@H](OC(C)=O)[C@@H](OC(C)=O)[C@@H]1OC(C)=O`, the half-maximal inhibitory concentration (IC50) came to 6.65 µM in data set [1] and 7.81 µM in data set [2]. Further, in data set [3], the midpoint of cytotoxicity, the CC50 at 48 h, lay at 102 µM.
Consider `CC(=O)OC[C@H]1O[C@@H](CC(=O)/C=C/c2cccc(NS(=O)(=O)c3ccc(C)cc3)c2)[C@H](OC(C)=O)[C@@H](OC(C)=O)[C@@H]1OC(C)=O`, for which the IC50 in data set [1] was determined as 1.14 µM; in data set [2], 2.17 µM. The molecule also showed a CC50 at 48 h in data set [3] of 584 µM.
With `CC(=O)OC[C@H]1O[C@@H](CC(=O)/C=C/c2cccc(NC(=S)Nc3ccccc3)c2)[C@@H](OC(C)=O)[C@@H](OC(C)=O)[C@@H]1OC(C)=O`, the IC50 in data set [1] turned out to be 3.73 µM; in data set [2], 2.87 µM. In data set [3], this molecule had a cytotoxic concentration (CC50) at 48 h of 65.1 µM.
As for `CCOC(=O)/C=C/c1cccc(NC(=S)Nc2ccccc2)c1`, the IC50 in data set [1] and in data set [2] was more than 20 µM each time. The molecule also yielded a CC50 at 48 h in data set [3] of 279 µM.
On to `Cc1ccc(S(=O)(=O)Nc2cccc(/C=C/C(=O)C[C@@H]3O[C@H](CO)[C@@H](O)[C@H](O)[C@H]3O)c2)cc1`, for which the 50% inhibitory concentration (IC50) in data set [1] was determined as 2.2 µM; in data set [2] it was 3.87 µM. The same molecule gave a CC50 at 48 h in data set [3] of 381 µM.
Turning to `Cc1ccc(S(=O)(=O)Nc2cccc(/C=C/C(=O)C[C@@H]3OC[C@@H](O)[C@H](O)[C@H]3O)c2)cc1`, the figures for the IC50 in data set [1] and in data set [2] were 2.93 µM and 6.35 µM, respectively. The molecule also returned a CC50 at 48 h in data set [3] of 94.7 µM.
For `CC(=O)OC[C@H]1O[C@@H](CC(=O)/C=C/c2ccc(NC(=O)Nc3ccc4ccccc4c3)cc2)[C@H](OC(C)=O)[C@@H](OC(C)=O)[C@@H]1OC(C)=O` the same measures were 2.18 µM, 5.36 µM and 482 µM.
Consider `O=C(/C=C/c1cccc(NC(=O)Nc2ccccc2)c1)C[C@@H]1O[C@H](CO)[C@@H](O)[C@H](O)[C@@H]1O`, for which the 50% inhibitory concentration (IC50) in data set [1] and in data set [2] was 20 µM in each case.
For orientation: Vd means a proportionality between amount in the body and measured concentration, not a real space. The clearance is a measure of how efficiently the substance is removed, as volume per time. In the case of `COc1ccc(NC(=O)Nc2cccc(/C=C/C(=O)C[C@@H]3O[C@H](CO)[C@@H](O)[C@H](O)[C@H]3O)c2)c([N+](=O)[O-])c1`, the distribution volume (Vd) in data set [4] amounted to 2.8 L/kg. For the same molecule, the IC50 in data set [1] came to 0.56 µM; in data set [2], 1.58 µM. In addition, the clearance in data set [5] is 17 mL/min/kg. The half-life in data set [6] is 7.1 h. Further, the CC50 at 48 h in data set [3] is 709 µM.
As to `O=C(/C=C/c1ccc(NC(=O)Nc2ccccc2)cc1)C[C@@H]1O[C@H](CO)[C@@H](O)[C@H](O)[C@H]1O`, the values for the concentration for half-maximal inhibition (IC50) in data set [1] and in data set [2] were 7.51 µM and 7.66 µM, respectively. Also, in data set [3], half-maximal cytotoxicity (CC50 at 48 h) was put at 1130 µM.
By inhibition is commonly meant the relative decrease from the control value, in per cent. As for `COc1ccc(NC(=O)Nc2cccc(/C=C/C(=O)C[C@@H]3O[C@H](COC(C)=O)[C@@H](OC(C)=O)[C@H](OC(C)=O)[C@H]3OC(C)=O)c2)c([N+](=O)[O-])c1`, in data set [7], the inhibition was found to be 92.7%. Moreover, the IC50 in data set [1] is 0.94 µM; in data set [2], 4.23 µM. Further, in data set [3], the half-maximal cytotoxic concentration (CC50) at 48 h stood at 730 µM.
In the case of `CCN(CC)CCCC(C)Nc1ccnc2cc(Cl)ccc12` (centres undefined) [CHLOROQUINE], it took 685 µM to reach half-maximal cytotoxicity in data set [3] (CC50 at 48 h).
In the case of `CCOC(=O)/C=C/c1cccc(NS(=O)(=O)c2ccc(C)cc2)c1`, the IC50 in data set [1] and in data set [2] was 16.1 µM throughout. For the same molecule, the midpoint of cytotoxicity in data set [3], the CC50 at 48 h, lay at 77.1 µM.
Take `Cc1ccc(S(=O)(=O)Nc2ccccc2)cc1`: the concentration for half-maximal inhibition (IC50) in data set [1] and in data set [2] was more than 20 µM in each case. The CC50 at 48 h in data set [3] was 221 µM.
Consider `COc1cc([N+](=O)[O-])ccc1NC(=S)Nc1cccc(/C=C/C(=O)C[C@@H]2O[C@H](COC(C)=O)[C@@H](OC(C)=O)[C@H](OC(C)=O)[C@H]2OC(C)=O)c1`, for which the inhibition in data set [7] turned out to be 72.1%. The IC50 is 0.55 µM in data set [1] and 0.42 µM in data set [2]. The CC50 at 48 h in data set [3] was determined as 559 µM.
Regarding `CCOC(=O)/C=C/c1cccc(NC(=O)Nc2ccccc2)c1`, the IC50 is 8.8 µM in data set [1] and 13.4 µM in data set [2]. In data set [3], this molecule registered a 50% cytotoxic concentration (CC50) at 48 h of 293 µM.
As to `O=C(/C=C/c1cccc(NC(=S)Nc2ccccc2)c1)C[C@@H]1O[C@H](CO)[C@@H](O)[C@H](O)[C@H]1O`, the IC50 was 9.43 µM in data set [1] and 7.2 µM in data set [2]. In addition, the midpoint of cytotoxicity in data set [3], the CC50 at 48 h, lay at 371 µM.
`CC(=O)OC[C@H]1O[C@@H](CC(=O)/C=C/c2cccc(NC(=O)Nc3ccccc3)c2)[C@H](OC(C)=O)[C@@H](OC(C)=O)[C@@H]1OC(C)=O` showed an inhibition in data set [7] of 72.5%. Moreover, the IC50 turned out to be 2.29 µM in data set [1] and 2.4 µM in data set [2]. Also, the CC50 at 48 h in data set [3] came to 180 µM.
As for `CC(=O)OC[C@H]1O[C@@H](CC(=O)/C=C/c2ccc(NC(=S)Nc3ccccc3)cc2)[C@H](OC(C)=O)[C@@H](OC(C)=O)[C@@H]1OC(C)=O`, the IC50 is 1.83 µM in data set [1] and 2.3 µM in data set [2]. Also, the half-maximal cytotoxic concentration (CC50) at 48 h in data set [3] was determined as 663 µM.
Consider `CC(=O)O[C@@H]1[C@@H](OC(C)=O)[C@H](OC(C)=O)CO[C@H]1CC(=O)/C=C/c1cccc(NC(=S)Nc2ccccc2)c1`, for which the IC50 in data set [1] is 4.2 µM; in data set [2], 5.57 µM. Further, the half-maximal cytotoxic concentration (CC50) at 48 h in data set [3] worked out at 58.7 µM.
On to `COc1ccc(NC(=O)Nc2ccccc2)c([N+](=O)[O-])c1`, for which the results for the IC50 in data set [1] and in data set [2] were more than 20 µM and 18 µM, respectively. In addition, in data set [3], the cytotoxic concentration (CC50) at 48 h stood at 356 µM.
For `O=C(/C=C/c1cccc(NC(=O)Nc2ccccc2)c1)C[C@@H]1O[C@H](CO)[C@@H](O)[C@H](O)[C@H]1O` the same measures were 3.77 µM, 3.39 µM and 373 µM.
Turning to `O=C(/C=C/c1cccc(NC(=S)Nc2ccccc2)c1)C[C@@H]1O[C@H](CO)[C@@H](O)[C@H](O)[C@@H]1O`, the IC50 in data set [1] was found to be 13.1 µM; in data set [2], 17.8 µM. Moreover, the CC50 at 48 h in data set [3] was found to be 336 µM.
Turning to `O=C(Nc1ccccc1)Nc1ccccc1`, the IC50 was 13.8 µM in data set [1] and more than 20 µM in data set [2]. For the same molecule, half-maximal cytotoxicity in data set [3] (CC50 at 48 h) was put at 352 µM.
With `CC(=O)OC[C@H]1O[C@@H](CC(=O)/C=C/c2cccc(NS(=O)(=O)c3ccc(C)cc3)c2)[C@@H](OC(C)=O)[C@@H](OC(C)=O)[C@@H]1OC(C)=O`, the concentration for half-maximal inhibition (IC50) in data set [1] was 3.96 µM; in data set [2] it was 5.19 µM. The molecule also came in with a CC50 at 48 h in data set [3] of 123 µM.
As for `CC(=O)O[C@@H]1[C@@H](OC(C)=O)[C@H](OC(C)=O)CO[C@H]1CC(=O)/C=C/c1cccc(NC(=O)Nc2ccccc2)c1`, the inhibition in data set [7] is 76.9%. The IC50 turned out to be 3.17 µM in data set [1] and 4.92 µM in data set [2]. The molecule further returned a CC50 at 48 h in data set [3] of 102 µM.
Turning to `Cc1ccc(S(=O)(=O)Nc2cccc(/C=C/C(=O)C[C@@H]3O[C@H](CO)[C@@H](O)[C@H](O)[C@@H]3O)c2)cc1`, the results for the IC50 in data set [1] and in data set [2] were 3.89 µM and 5.11 µM, respectively. In addition, the midpoint of cytotoxicity in data set [3], the CC50 at 48 h, lay at 417 µM.
As to `COc1cc([N+](=O)[O-])ccc1NC(=S)Nc1cccc(/C=C/C(=O)C[C@@H]2O[C@H](CO)[C@@H](O)[C@H](O)[C@H]2O)c1`, the half-inhibitory concentration (IC50) in data set [1] amounted to 3.35 µM; in data set [2] it was 2.47 µM. The same molecule returned a cytotoxic concentration (CC50) at 48 h in data set [3] of 203 µM.
In the case of `O=C(/C=C/c1cccc(NC(=S)Nc2ccccc2)c1)C[C@@H]1OC[C@@H](O)[C@H](O)[C@H]1O`, the concentration for half-maximal inhibition (IC50) in data set [1] is 6.89 µM; in data set [2], 8.69 µM. This molecule yielded a half-maximal cytotoxic concentration (CC50) at 48 h in data set [3] of 289 µM.
Turning to `CC(=O)OC[C@H]1O[C@@H](CC(=O)/C=C/c2ccc(NC(=O)Nc3ccccc3)cc2)[C@H](OC(C)=O)[C@@H](OC(C)=O)[C@@H]1OC(C)=O`, the IC50 in data set [1] was found to be 5.27 µM; in data set [2] it was 5.55 µM. Besides, the midpoint of cytotoxicity in data set [3], the CC50 at 48 h, lay at 820 µM.

The values above are taken from ChEMBL document CHEMBL3351535, “Identification of novel phenyl butenonyl C-glycosides with ureidyl and sulfonamidyl moieties as antimalarial agents” (ACS Med Chem Lett, 2014).
